According to the supplement of paper PMC11061612:

Tests used:
Experiment in all cases: Bliss excess, mean over the matrix (fraction); higher = more synergy
[1] = system: EVSA-T (Breast Carcinoma)
Method in brief: (§1)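 Cell lines grown in DMEM/F12 or RPMI with 10% FBS were plated in 1536-well plates and held 24 hours at 37°C, 5% CO2 before 72 hours of exposure to two-drug dose matrices, with DMSO typically at 0.2%. CellTiter-Glo 2.0 luminescence gave viability, which was converted to inhibition. Vehicle wells were set to 0 and blank wells to 1. Combination Emax is the second-highest inhibition in the matrix, and Bliss excess is the observed combination effect minus the expected EA + EB − EA·EB, where EA and EB are the single-agent effects.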

[2] = system: BFTC-905 (Bladder Carcinoma)
Method in brief: as §1

U251 (Low Grade Glioma) = system: U251 (Low Grade Glioma)
Method in brief: as §1

ES1 (Ewing's Sarcoma) = system: ES1 (Ewing's Sarcoma)
Method in brief: as §1

[3] = system: MS751 (Cervical Carcinoma)
Method in brief: as §1

[4] = system: KCL-22 (Chronic Myelogenous Leukemia)
Method in brief: as §1

[5] = system: P12-ICHIKAWA (T-Lymphoblastic Leukemia)
Method in brief: as §1

[6] = system: L-540 (Hodgkin's Lymphoma)
Method in brief: as §1

[7] = system: SW837 (Colorectal Carcinoma)
Method in brief: as §1

[8] = system: SR (Other Blood Carcinomas)
Method in brief: as §1

[9] = system: GR-ST (B-Lymphoblastic Leukemia)
Method in brief: as §1

[10] = system: K-562 (Chronic Myelogenous Leukemia)
Method in brief: as §1

ES8 (Ewing's Sarcoma) = system: ES8 (Ewing's Sarcoma)
Method in brief: as §1

NCI-H2818 (Mesothelioma) = system: NCI-H2818 (Mesothelioma)
Method in brief: as §1

[11] = system: HL-60 (Acute Myeloid Leukemia)
Method in brief: as §1

[12] = system: MOLT-16 (T-Lymphoblastic Leukemia)
Method in brief: as §1

[13] = system: KARPAS-45 (T-Lymphoblastic Leukemia)
Method in brief: as §1

[14] = system: HDQ-P1 (Breast Carcinoma)
Method in brief: as §1

[15] = system: SU-DHL-8 (B-Cell Non-Hodgkin's Lymphoma)
Method in brief: as §1

WM-115 (Melanoma) = system: WM-115 (Melanoma)
Method in brief: as §1

| Structure (SMILES) | Bliss excess [1] | Bliss excess [2] | Bliss excess (U251 (Low Grade Glioma)) | Bliss excess (ES1 (Ewing's Sarcoma)) | Bliss excess [3] | Bliss excess [4] | Bliss excess [5] | Bliss excess [6] | Bliss excess [7] | Bliss excess [8] | Bliss excess [9] | Bliss excess [10] | Bliss excess (ES8 (Ewing's Sarcoma)) | Bliss excess (NCI-H2818 (Mesothelioma)) | Bliss excess [11] | Bliss excess [12] | Bliss excess [13] | Bliss excess [14] | Bliss excess [15] | Bliss excess (WM-115 (Melanoma)) |
| --- | --- | --- | --- | --- | --- | --- | --- | --- | --- | --- | --- | --- | --- | --- | --- | --- | --- | --- | --- | --- |
| COc1nnc2ccc(N3CCC(c4ccc(OCCN5CCN(C)C(=O)[C@H]5C)cc4)CC3)nn12 [AZD5153] + CC1(C)CCC(CN2CCN(c3ccc(C(=O)NS(=O)(=O)c4ccc(NCC5CCOCC5)c([N+](=O)[O-])c4)c(Oc4cnc5[nH]ccc5c4)c3)CC2)=C(c2ccc(Cl)cc2)C1 [Venetoclax] (first compound max 1 µM, 7x7, partner max 1 µM) | -0.0008 | -0.0577 | -0.0872 | -0.0896 | -0.0752 | -0.0343 | -0.0389 | -0.0012 | -0.0514 | -0.0209 | -0.0399 | -0.0494 | -0.0594 | -0.0487 | -0.0379 | 0.0309 | 0.0433 | -0.0307 | -0.0486 | -0.0717 |
| CC(=O)c1c(C)c2cnc(Nc3ccc(N4CCNCC4)cn3)nc2n(C2CCCC2)c1=O [Palbociclib] + CC1(C)CCC(CN2CCN(c3ccc(C(=O)NS(=O)(=O)c4ccc(NCC5CCOCC5)c([N+](=O)[O-])c4)c(Oc4cnc5[nH]ccc5c4)c3)CC2)=C(c2ccc(Cl)cc2)C1 [Venetoclax] (first compound max 10 µM, 7x7, partner max 1 µM) | 0.0048 | -0.046 | -0.0348 | -0.0214 | -0.0251 | 0.0057 | -0.0157 | -0.0852 | -0.0671 | -0.0245 | 0.0074 | -0.0313 | 0.0365 | -0.0146 | -0.0215 | 0.0452 | 0.0598 | -0.0555 | -0.0096 | -0.0708 |
| CN(CCO)CC[C@H](CSc1ccccc1)Nc1ccc(S(=O)(=O)NC(=O)c2ccc(N3CCC([C@@H](O)c4ccccc4-c4ccc(Cl)cc4)CC3)cc2)cc1S(=O)(=O)C(F)(F)F [AZD4320] + Cn1cnc2c(F)c(Nc3ccc(Br)cc3Cl)c(C(=O)NOCCO)cc21 [Selumetinib] (first compound max 1 µM, 7x7, partner max 3 µM) | 0.0703 | -0.0411 | -0.0087 | 0.0147 | 0.0636 | 0.0271 | 0.0748 | -0.0184 | -0.0184 | 0.0208 | -0.0417 | 0.0465 | -0.0479 | -0.0136 | 0.0259 | -0.0335 | -0.0248 | 0.0877 | -0.102 | 0.102 |
| CN(CCO)CC[C@H](CSc1ccccc1)Nc1ccc(S(=O)(=O)NC(=O)c2ccc(N3CCC([C@@H](O)c4ccccc4-c4ccc(Cl)cc4)CC3)cc2)cc1S(=O)(=O)C(F)(F)F [AZD4320] + C1CN(CCC1(C(=O)N[C@@H](CCO)C2=CC=C(C=C2)Cl)N)C3=NC=NC4=C3C=CN4 [Capivasertib] (first compound max 1 µM, 7x7, partner max 3 µM) | -0.0161 | -0.0552 | -0.0689 | 0.0027 | -0.009 | -0.0075 | 0.0119 | -0.0075 | -0.0453 | 0.095 | 0.0039 | -0.0155 | -0.0427 | -0.126 | -0.0438 | -0.0201 | 0.0265 | 0.0119 | -0.0454 | 0.0144 |
| COc1nnc2ccc(N3CCC(c4ccc(OCCN5CCN(C)C(=O)[C@H]5C)cc4)CC3)nn12 [AZD5153] + Cn1cnc2c(F)c(Nc3ccc(Br)cc3Cl)c(C(=O)NOCCO)cc21 [Selumetinib] (first compound max 1 µM, 7x7, partner max 10 µM) | -0.031 | 0.0113 | -0.0062 | -0.0511 | 0.0385 | 0.0841 | 0.0746 | -0.0441 | -0.0187 | -0.0614 | -0.0578 | -0.001 | 0.0303 | -0.0031 | 0.0707 | -0.0353 | 0.0362 | -0.0697 | 0.0473 | 0.15 |
| CN(C)CCCOc1ccc(-c2ccc3ncc4c(c3c2)n(C2CCOCC2)c(=O)n4C)cn1 [AZD0156] + O=C(c1cc(Cc2n[nH]c(=O)c3ccccc23)ccc1F)N1CCN(C(=O)C2CC2)CC1 [Olaparib] (first compound max 3 µM, partner max 3 µM) | 0.092 | 0.175 | 0.0345 | 0.245 | -0.0033 | 0.157 | 0.191 | 0.0746 | 0.0159 | 0.194 | 0.131 | 0.0271 | 0.39 | -0.0202 | 0.141 | 0.397 | 0.0456 | -0.0859 | 0.0543 | 0.0028 |
| COc1nnc2ccc(N3CCC(c4ccc(OCCN5CCN(C)C(=O)[C@H]5C)cc4)CC3)nn12 [AZD5153] + C[C@@H]1COCCN1C2=NC(=NC(=C2)C3(CC3)[S@](=N)(=O)C)C4=C5C=CNC5=NC=C4 [AZD6738] (first compound max 1 µM, 7x7, partner max 10 µM) | 0.0026 | -0.05 | 0.0544 | -0.015 | 0.0833 | -0.0188 | 0.055 | -0.0623 | -0.0066 | -0.016 | -0.0956 | -0.0303 | -0.0096 | -0.0383 | -0.0003 | -0.0105 | -0.0191 | 0.0527 | 0.0042 | -0.0276 |
| CC(=O)c1c(C)c2cnc(Nc3ccc(N4CCNCC4)cn3)nc2n(C2CCCC2)c1=O [Palbociclib] + Cn1cnc2c(F)c(Nc3ccc(Br)cc3Cl)c(C(=O)NOCCO)cc21 [Selumetinib] (first compound max 10 µM, 7x7, partner max 10 µM) | -0.0035 | 0.0595 | -0.0013 | -0.0366 | -0.0445 | -0.0021 | 0.138 | -0.071 | 0.0075 | 0.0352 | 0.0333 | 0.0221 | 0.041 | -0.0013 | 0.0109 | -0.0133 | 0.0636 | -0.0555 | 0.0147 | -0.0126 |
| C[C@@H](c1ccc2nccn2c1)n1nnc2ncc(-c3cnn(C)c3)nc21 [Savolitinib] + CC1(C)CCC(CN2CCN(c3ccc(C(=O)NS(=O)(=O)c4ccc(NCC5CCOCC5)c([N+](=O)[O-])c4)c(Oc4cnc5[nH]ccc5c4)c3)CC2)=C(c2ccc(Cl)cc2)C1 [Venetoclax] (first compound max 1 µM, 7x7, partner max 1 µM) | -0.0269 | -0.0416 | -0.0938 | -0.0515 | -0.028 | -0.0352 | -0.0414 | 0.0201 | -0.0813 | 0.0747 | -0.0073 | -0.0187 | 0.0191 | -0.0411 | -0.0202 | -0.0788 | -0.017 | -0.085 | -0.0419 | -0.0346 |
| CC1(C)CCC(CN2CCN(c3ccc(C(=O)NS(=O)(=O)c4ccc(NCC5CCOCC5)c([N+](=O)[O-])c4)c(Oc4cnc5[nH]ccc5c4)c3)CC2)=C(c2ccc(Cl)cc2)C1 [Venetoclax] + Cc1cc2ncnn2cc1Nc1ncc2c(n1)n(C1CCOCC1)c(=O)n2C [AZD7648] (first compound max 1 µM, 7x7, partner max 10 µM) | -0.0394 | -0.0081 | -0.0719 | 0.0149 | 0.003 | 0.0097 | 0.0424 | 0.0588 | -0.0563 | -0.0115 | -0.0513 | -0.0011 | -0.0817 | -0.0529 | 0.0582 | 0.0704 | 0.0482 | -0.0288 | -0.0318 | -0.038 |
| CN(CCO)CC[C@H](CSc1ccccc1)Nc1ccc(S(=O)(=O)NC(=O)c2ccc(N3CCC([C@@H](O)c4ccccc4-c4ccc(Cl)cc4)CC3)cc2)cc1S(=O)(=O)C(F)(F)F [AZD4320] + CCN(CCO)CCCOc1ccc2c(Nc3cc(CC(=O)Nc4cccc(F)c4)[nH]n3)ncnc2c1 [AZD2811] (first compound max 1 µM, 7x7, partner max 1 µM) | 0.156 | 0.121 | 0.0287 | 0.142 | 0.0064 | 0.0572 | 0.0103 | 0.0985 | 0.0082 | 0.0343 | -0.0272 | 0.0055 | 0.0276 | -0.0555 | -0.0281 | -0.0049 | -0.0137 | 0.0258 | -0.013 | -0.0003 |
| COc1nnc2ccc(N3CCC(c4ccc(OCCN5CCN(C)C(=O)[C@H]5C)cc4)CC3)nn12 [AZD5153] + C=CCn1c(=O)c2cnc(Nc3ccc(N4CCN(C)CC4)cc3)nc2n1-c1cccc(C(C)(C)O)n1 [AZD1775] (first compound max 1 µM, partner max 1 µM) | -0.0108 | -0.0559 | 0.0398 | -0.0845 | 0.064 | -0.0578 | 0.0148 | -0.0433 | -0.0653 | -0.074 | -0.0897 | -0.0718 | -0.0563 | 0.0033 | -0.0519 | -0.0021 | -0.0088 | -0.041 | 0.0014 | -0.11 |
| CC(=O)Nc1cccc(-n2c(=O)n(C3CC3)c(=O)c3c(Nc4ccc(I)cc4F)n(C)c(=O)c(C)c32)c1 [Trametinib] + Cc1nc(-c2cn3c(n2)-c2ccc(-c4cnn(C(C)(C)C(N)=O)c4)cc2OCC3)n(C(C)C)n1 [Taselisib] (first compound max 1 µM, 7x7, partner max 10 µM) | -0.0335 | 0.167 | 0.132 | 0.0161 | 0.128 | 0.292 | 0.267 | 0.0227 | 0.05 | 0.22 | -0.0059 | 0.151 | -0.0924 | -0.0103 | 0.228 | 0.006 | 0.112 | 0.221 | -0.0358 | 0.048 |
| C[C@@H](c1ccc2nccn2c1)n1nnc2ncc(-c3cnn(C)c3)nc21 [Savolitinib] + Cc1c2c(nn1C)CSCc1cc(n(C)n1)CSc1cc(c3ccccc3c1)OCCCc1c(C(=O)O)n(C)c3c-2c(Cl)ccc13 [AZD5991] (first compound max 1 µM, 7x7, partner max 1 µM) | -0.0233 | -0.0523 | -0.0691 | -0.0152 | -0.0701 | -0.0134 | 0.02 | -0.0054 | -0.0644 | 0.0023 | -0.037 | 0.0145 | 0.0495 | -0.0343 | -0.0266 | -0.0289 | -0.0264 | -0.0456 | -0.0425 | -0.037 |
